# Source: patent US20120251482A1, “USE FOR IMPROVING 5-HT FUNCTION AND ENOS EXPRESSION OF KMUPS AMINE SALTS” (KAOHSIUNG MEDICAL UNIVERSITY, priority 2011, published 2012)
# Structures can show the parent of a compound that is named as a salt.
# Legend:
# rat pulmonary artery = test: Isometric force of 5-HT-constricted pulmonary artery rings
# Description: Wistar rats were euthanized with an overdose of sodium pentobarbital (60 mg/kg, i.p.) before open-chest surgery. During surgery, a thoracic retractor was used to help isolate the pulmonary artery. The chest was opened to dissect the second branches of the main pulmonary artery, which were cut into 2-3 mm rings, suspended under isometric conditions and connected to a force transducer as previously described (Ugo Basile, Model 7004, Comerio-VA, Italy) (Schach et al., 2007) to measure the constriction caused by 5-HT (10 μM). The pulmonary artery ring preparations were stretched to a basal tension of 1 g and allowed to equilibrate for 60-90 min. After equilibration, pulmonary artery rings were constricted with 5-HT (10 μM) to prime the tissues and check the functionality of the endothelium (at least 80% relaxation in response to acetylcholine 1 μM). Once the contractile response to each agonist reached a stable tension, KMUP-1 (0.1-100 μM) was cumulatively added to the organ bath in the presence of 5-HT (10 μM, pre-incubation time of 15 min).
# The effect of KMUP-1 on NOS and 5-HT was also studied in vessels pre-incubated with the NOS inhibitor L-NAME (100 μM) 20 min before 5-HT administration. The percentage of relaxation was estimated using the following equation: relaxation (%)=(maximal contraction—relaxation level)/(maximal contraction-basal level)×100. Data was obtained from serotonin-induced maximal contractile responses in pulmonary artery.
# [1] = test system: monocrotaline (MCT)-induced pulmonary artery hypertension rats; test: Mean pulmonary arterial pressure in MCT-induced PAH rats; assay type: in vivo, rat; conditions: MCT-treated rats, daily treatment for 21 days, n = 5
# ERK1/2 = test: 5-HT-induced phosphorylation of ERK1/2 in PASMCs; assay type: cell-based, rat
# Description: (§1) Wistar rats were anesthetized with an overdose of sodium pentobarbital (60 mg/kg) and the skin was sterilized with 75% alcohol. The chest was opened and the heart and lung were removed. The organs were rinsed several times in PBS. The pulmonary arterys (PAs) were segregated in a sterile manner. The outer sphere was peeled and the microtubule was snipped visually, and endothecia were shaved lightly 2-3 times in order to remove endothelial cells. The tunica media was prepared into scraps (1 mm^3) in DMEM (Dulbecco's modified Eagle's medium). PASMCs were cultured in DMEM containing 10% fetal bovine serum (5% CO2 at 37° C.). The culture medium was changed every 3 days and cells were subcultured until confluence. Primary cultures of 2-4 passages were used in the experiments. Cells were examined by immunofluorescence staining of α-actin to confirm the purity of PASMCs.
# (§2) PASMCs were stimulated with 5-HT or not, as indicated. Cells were treated with KMUP-1 for 24 h before 5-HT stimulation. […]
# (§3) The expression of RhoA/ROCK and phosphorylation of ERK1/2 and AKT kinase in PASMCs were assessed by incubating the PASMCs with 5-HT (10 μM) for 15 min (peak time for RhoA/ROCK, ERK1/2 and AKT phosphorylation) and 5-HTT for 10 min (peak time for 5-HTT) after KMUP-1 (1-100 μM) was added to the culture of PASMCs for 24 h.
# AKT = test: 5-HT-induced phosphorylation of AKT in PASMCs; assay type: cell-based, rat
# Description: as §1, §2, §3
# eNOS = test: Expression of eNOS in HPAEC (Western blotting); assay type: cell-based, human
# Description: (§4) HPAEC purchased from ATCC were maintained in humidified incubator containing 5% CO2 at 37° C. HPAEC were cultured in F-12 supplemented with 10% fetal bovine serum. The culture medium was changed every 3 days and cells were subcultured until confluence. HPAEC were harvested with a solution of trypsin-EDTA (GIBCO BRL, NY, USA) while in a logarithmic phase of growth. HPAEC were used between passages 4-8.
# PASMCs were stimulated with 5-HT or not, as indicated. Cells were treated with KMUP-1 for 24 h before 5-HT stimulation. Whole lysates were collected and resolved by SDS-PAGE as previously described (Liu et al., 2004). Primary antibodies were anti-β-actin at: 1:10,000 dilution and anti-RhoA, anti-ROCK, antiphospho-ERK1/2, anti-ERK1/2, anti-phospho-AKT, anti-AKT, anti-5HTT, anti-5-HT2B and anti-eNOS at 1:1000. All blots were incubated with antibodies at 4° C. overnight. After being washed, the appropriate secondary antibodies were added at a dilution of 1:1000 for 1 h at room temperature. After extensive washing, blots were developed with a Super Signal enhanced chemiluminescence kit (Biorad, CA, USA) and visualized on Kodak AR film.
# To measure the expression of eNOS and 5-HT2B receptor in HPAEC after incubation with KMUP-1(1-100 μM) for 24 h, whole lysates were collected for Western blotting assay. The relative density was determined using NIH imaging software.
# [2] = test system: human pulmonary artery endothelial cell (HPAEC); test: Nitric oxide production in HPAEC (Griess method); assay type: cell-based; conditions: 5-HT 10 μM for 30 min
# Description: as §4
# Production of NO in HPAEC was determined using the Griess method (Niwano et al., 2003). The three step Greiss test converts nitrate (NO3^−) into nitrite (NO2^−) giving a total NO2^− concentration from a standard calibration curve. HPAEC were incubated with or without KMUP-1 (10 μM) for 24 h and then incubated with 5-HT (10 μmol/L) for 30 min. Media samples from HPAEC were taken and the NO concentration was determined. Six independent experiments were carried out and data are reported as the mean mean±SEM.
# [3] = test system: pulmonary arterial smooth muscle cells (PASMCs); test: PASMCs [Ca2+]i measurement (Fura-2/AM); assay type: cell-based, rat; conditions: at 10 μM; 5-HT 10 μM
# Description: as §1
# The measurement of [Ca^2+]i in PASMCs was performed using a spectrofluorophotometer as previously reported (Wang et al., 2004). PASMCs, cultured for 2-4 passages and re-suspended by trypsin, were loaded with Fura-2/AM for the measurement of [Ca^2+]i changes in cells within the cuvette by spectrofluorophotometer (Shimadzu, RF-5301PC, Shimadzu, Japan). KMUP-1 was applied 5 min before application of 5-HT (10 μM).
# 5-HTT = test: Pulmonary 5-HTT expression in MCT-treated rats (immunochemistry, Western blotting); assay type: in vivo, rat
# Description: All experiments were performed in adult male Wistar rats (300 to 350 g) in accordance with institutional guidelines after approval by the ethical review committee. PAH development and pulmonary expression of 5-HTT were examined in rats after single injection of MCT (60 mg/kg i.p.). To assess the potential preventive effect of KMUP-1 on MCT-induced PAH and associated proliferation, we assigned rats at random to 2 groups of 8 animals which received KMUP-1 at 5 mg/kg/day p.o or 1 mg/kg/day i.p. All treatments were given once a day for 3 weeks after a single MCT injection (60 mg/kg i.p.) (Abe et al., 2004). On day 21, rats were anesthetized and pulmonary artery blood pressure (MPAP) was recorded as previously described (Chung et al., 2010). Lung tissues were dissected for Western blotting and immunohistochemistry.
# For 5-HTT immunostaining, the lung slides were dewaxed in 100% xylene, and the sections were then rehydrated by successive immersion first in decreasing ethanol concentrations (100%, 90%, 80%, 50% and 30%) and then in water. Endogenous peroxidase activity was blocked using H2O2 in methanol (0.3% vol/vol) for 10 min. After three PBS washes, sections were pre-incubated in PBS supplemented with 3% (wt/vol) BSA for 30 min, then incubated overnight at 4° C. with goat polyclonal anti-5-HTT antibody (Abcam Biotechnology, Cambridge, UK) diluted to 1:1000 in 1×PBS, 0.02% BSA. […]
# RhoA = test: 5-HT-induced RhoA translocation in PASMCs; assay type: cell-based, rat; conditions: 1-100 μM, 24 h; 5-HT 10 μM 15 min
# Description: as §1, with “Cells were examined by immunofluorescence staining of α-actin to confirm the purity of PASMCs.” left out
# Previous reports have shown that the active form of RhoA is translocated from the cytosol to the plasma membrane, where it activates Rho kinase (Gong et al., 1997)). […] To assess membrane trans-location of RhoA, protein in membrane and cytosolic fractions was determined by standard Western blot analysis using mouse monoclonal anti-RhoA antibody (1:1000 dilution, Santa Cruz Biotechnology) and a peroxidase-labeled anti-mouse immunoglobulin (Ig) G antibody (1:1000 dilution, Santa Cruz Biotechnology, CA, USA). The relative density of membrane to cytosolic RhoA was determined using NIH imaging software. […]
# PASMCs [4] = test: 5-HT-induced PASMCs migration, wound assay model; assay type: cell-based, rat; conditions: 10-100 μM; 5-HT 10 μM 24 h
# Description: The wound edge was viewed and photographed under a microscope (Nikon, Tokyo, Japan) before and after culture for 24 h in serum-free DMEM in the presence of 5HT (10 μM). The distance the cells migrated from the wound surface was then manually measured.
# PASMCs [5] = test: 5-HT-induced PASMCs proliferation, MTT assay; assay type: cell-based, rat; conditions: KMUP-1 1-100 μM; 5-HT 10 μM 24 h
# Description: as §1
# PASMCs were seeded into 96-well plates at a density of 1×10^4 cells/well. […] At the end of this period, MTT (2 g/L) was added to each well, and incubation proceeded at 37° C. for 4 h. Thereafter, the medium was removed and the cells were solubilized in 150 μL DMSO. The optical density (OD) of each well was determined by enzyme-linked ELISA at 540 nm of wavelength.
# 5-HT2B receptor = target: T1, 5-HT2B receptor (Homo sapiens, UniProt P41595); test: Displacement of [3H]-LSD radioligand binding; conditions: from Table 1
# T1 construct: full length clones of 5-HT2A, 5-HT2B and 5-HT2C receptor were prepared from CHO-K1 cells; expressed in transfected cells; host or cells: CHO-K1
# T1 sequence (P41595 whole entry): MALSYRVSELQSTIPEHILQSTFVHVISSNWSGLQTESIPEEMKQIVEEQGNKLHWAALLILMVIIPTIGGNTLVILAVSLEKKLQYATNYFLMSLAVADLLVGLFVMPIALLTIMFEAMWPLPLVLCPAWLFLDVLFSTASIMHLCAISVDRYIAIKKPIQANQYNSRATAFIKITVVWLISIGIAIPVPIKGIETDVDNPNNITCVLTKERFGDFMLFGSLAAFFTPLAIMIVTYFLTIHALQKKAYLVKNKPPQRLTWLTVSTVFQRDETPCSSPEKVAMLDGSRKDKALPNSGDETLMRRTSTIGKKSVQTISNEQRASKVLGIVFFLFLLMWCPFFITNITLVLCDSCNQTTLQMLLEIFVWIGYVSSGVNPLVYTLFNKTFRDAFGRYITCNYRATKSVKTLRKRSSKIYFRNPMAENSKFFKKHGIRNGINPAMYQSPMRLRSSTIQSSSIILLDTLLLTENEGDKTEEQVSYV
# Description: As described previously (Bonhaus et al., 1995), full length clones of 5-HT2A, 5-HT2B and 5-HT2C receptor were prepared from CHO-K1 cells. […] IC50 represents the concentration of competing ligand which displaces 50% of the specific binding of the radioligand. Ki values for competition curves were calculated using the Cheng-Prusoff equation (Cheng, 2001).
# [6] = pre-incubation 1-100 μM for 24 h
structure (smiles),measurement,setting,value
"COC(=O)[C@@H](N)CCCNC(=N)N[N+](=O)[O-] [L-NAME, N^ω-nitro-L-arginine methyl ester, reference compound]",5-HT-induced constriction,rat pulmonary artery; L-NAME alone with 5-HT,enhanced
Cn1c(=O)c2c(ncn2CCN2CCN(c3ccccc3Cl)CC2)n(C)c1=O [KMUP-1 HCl],"mean pulmonary arterial pressure (MPAP), Table 2",[1],35.8 ± 3.2
"NCCc1c[nH]c2ccc(O)cc12 [5-HT, 5-hydroxytryptamine]",increase of phosphorylation of ERK1/2,ERK1/2; 5-HT 10 μM for 15 min,2.3 fold
same,increase of phosphorylation of AKT,AKT; 5-HT 10 μM for 15 min,2.3 fold
same,expression of eNOS compared to the control group,eNOS; 5-HT 10 μM for 30 min,increased
same,release of NO compared to the control group,[2],increased
"Cn1c(=O)c2c(ncn2CCN2CCN(c3ccccc3Cl)CC2)n(C)c1=O [KMUP-1, 7-[2-[4-(2-chlorophenyl)piperazinyl]ethyl]-1,3-dimethyl-xanthine]",contractile response of pulmonary artery to 5-HT (10 μM),rat pulmonary artery; 0.1-100 μM,inhibited
same,maximum response of pulmonary artery to 5-HT in the presence of L-NAME,"rat pulmonary artery; KMUP-1 10-100 μM, L-NAME 100",reduced the maximum response
same,inhibition of the sustained [Ca2+]i response to 5-HT,[3],65%
same,"5-HTT expression in pulmonary artery, immunochemistry","5-HTT; 21 days after MCT injection, 5 mg/kg p.o. and 1 mg/kg i.p.",significantly decreased
same,"5-HTT protein expression in lung tissue, Western blotting",5-HTT; MCT-treated rats,significantly reduced
same,5-HT stimulated RhoA translocation,RhoA,inhibited
same,5-HT-induced phosphorylation of ERK1/2,ERK1/2; [6],dose-dependently inhibited
same,5-HT-induced phosphorylation of AKT,AKT; [6],dose-dependently inhibited
same,5-HT induced PASMCs migration,PASMCs [4],inhibited
same,PASMCs proliferation,PASMCs [5],dose-dependently inhibited
same,affinity order of the sub-receptors,5-HT2B receptor,5-HT2A>5-HT2B>5-HT2C
same,ligand specificity of the human 5-HT2B receptor versus 5-HT2A and 5-HT2C receptors,5-HT2B receptor,more selective
same,eNOS expression,eNOS; 1-100 μM for 24 h,dose-dependently increased
